For test [1], the system named is lung cancer cells, A549, H1299, H1975, CL1-5, and PC-9. Description: methylene blue dye assay, growth of lung cancer cells. Format: cell-based. The note with it: Homo sapiens; range over A549, H1299, H1975, CL1-5, PC-9; treated 1-5 μM for 1, 2 or 3 days; read-out: IC50 values (50% inhibition of cell viability). The text has this:
The effects of Compound A and Compound B on the growth of tumor cells were investigated in A549 (adenocarcinomic human alveolar epithelial cell), H1299 (human non-small cell lung carcinoma cell), H1975 (human non-small cell lung carcinoma cell), CL1-5 (human lung adenocarcinoma cell), and PC-9 (human lung adenocarcinoma cell) cell lines. A methylene blue dye assay (G. J. Finlay et al., Anal Biochem. 1984 June; 139(2):272-7) (11) was used to evaluate the inhibitory effect of Compound A and Compound B. Briefly, each of the cell lines with a logarithmic growth phase was cultured at a density of 2×10^4 to 4×10^4 cells per well in a 24-well plate, and treated with 1-5 μM of Compound A or Compound B for 1, 2, or 3 days. At the end of the incubation period, cells were fixed and stained with 0.5% methylene blue containing 50% ethanol for 30 minutes and then were washed and dried. The resulting colored residues were dissolved in 1% N-lauroyl-sarcosine, and optical density was read at 595 nm using a microplate reader. The IC50 value resulting from 50% inhibition of cell viability was calculated graphically as a comparison with vehicle control group. Each point represents the average of at least 3 independent experiments run in quadruple.

The test system of test [2] is TC-1 tumor (mouse lung epithelial cancer cells). As to the kind of experiment: mouse model bearing TC-1 tumor. The class given is in vivo, C57BL/6 mice. The note with it: oral gavage 120 mg/Kg/day, p<0.05. As for the experimental part: (§1) The anti-tumor activity of Compound A was evaluated in the human NSCLC xenograft model. Nude mice and C57BL/6 mice were subcutaneously inoculated with H1299 (1×10^6) and mouse lung epithelial cancer cells, TC-1 (2×10^5), respectively. Tumor volumes were measured beginning on day 4 or 5 after tumor inoculation according to the relationship (L×D^2)/2, where L is the long dimension and D is the short dimension. The xenograft tumor-bearing mice were administered by oral gavage with compound A (dissolved in 10% dimethyl sulfoxide (DMSO)/cottonseed oil) at 120 mg/Kg/day for consecutive 5 days of the week. Animal body weight and tumor size were measured twice weekly. ANOVA followed by a multiple comparison Scheff test was conducted to determine significant differences among the treatment group at p<0.05.

Test [3] concerns H1299 tumor. Description: human NSCLC xenograft model bearing H1299 tumor. The class given is in vivo, Nude mice. The conditions noted are these: oral gavage 120 mg/Kg/day; for tumor regression: 5 consecutive days of the week. As for the experimental part: as §1

The values below come from US20240238220A1, “METHODS FOR TREATING CANCERS” (priority 2023, published 2024).

Turning to `COc1ccc(/C=C/C(=O)C(CC2CCC2)C(=O)/C=C/c2ccc(OC)c(OC)c2)cc1OC` [Compound B, 4-(cyclobutylmethyl)-1,7-bis(3,4-dimethoxyphenyl)hepta-1,6-diene-3,5-dione], the IC50 in test [1] was in the range of 2000 to 3300 nM.
Take `COc1ccc(/C=C/C(=O)C(F)(CC2CCC2)C(=O)/C=C/c2ccc(OC)c(OC)c2)cc1OC` [Compound A, 4-fluoro-4-cyclobutylmethyl-1,7-bis(3,4-dimethoxyphenyl)hepta-1,6-diene-3,5-dione]: the “inhibitory activity on tumor” value in test [2] is on record as “statistically significant inhibitory activity”; in test [3] (H1299 tumor, p<0.05), “statistically significant inhibitory activity”. In addition, the IC50 in test [1] lay in the range of 1500 to 3000 nM. For the same compound, the tumor regression result in test [3] (day 35) is “around 36%”; in test [3] (day 50) it was “around 43%”.
